The term IC50 denotes the point on the concentration scale where inhibition reaches its midpoint. A lower IC50 goes with greater potency in that assay.

The target of the assay is cruzipain (Trypanosoma cruzi, UniProt P25779). The assay is described as follows: biochemical. To be noted: 50 pM cruzipain, pH 5.5, 15 minutes preincubation, 2 μM Z-Phe-Arg-AMC substrate. The procedure: The assay solutions were mixed and incubated for 15 minutes at room temperature prior to the addition of 2 μM of Z-Phe-Arg-AMC substrate. […] Percent of inhibition were calculated by fitting experimental values to standard mathematical model for dose response curve.
Sequence of cruzipain (P25779 123-467): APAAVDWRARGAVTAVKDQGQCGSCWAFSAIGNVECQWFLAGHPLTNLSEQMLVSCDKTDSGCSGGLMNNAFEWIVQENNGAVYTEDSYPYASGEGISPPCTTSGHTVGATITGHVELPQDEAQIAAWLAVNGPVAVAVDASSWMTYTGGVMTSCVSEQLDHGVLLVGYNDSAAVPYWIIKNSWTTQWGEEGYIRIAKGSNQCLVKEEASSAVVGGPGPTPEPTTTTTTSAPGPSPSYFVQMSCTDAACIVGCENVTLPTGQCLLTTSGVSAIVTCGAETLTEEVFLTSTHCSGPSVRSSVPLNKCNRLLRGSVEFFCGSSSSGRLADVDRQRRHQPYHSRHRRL
As for `CC(C)[C@H](N[C@@H](c1ccc(Br)cc1)C(F)(F)F)C(=O)N[C@H](C#N)Cc1ccccc1` [Example 40, (S)-2-[(S)-1-(4-Bromo-phenyl)-2,2,2-trifluoro-ethylamino]-N-((S)-1-cyano-2-phenyl-ethyl)-3-methyl-butyramide], the 50% inhibitory concentration (IC50) was determined as 10.5 nM.
With `CC(C)(F)C[C@H](N[C@@H](c1ccc(-c2ccc(C3(C(N)=O)CC3)cc2)cc1)C(F)(F)F)C(=O)N[C@H](C#N)Cc1ccc(C#N)cc1F` [Example 38, 1-[4′-((S)-1-{(S)-1-[(S)-1-Cyano-2-(4-cyano-2-fluoro-phenyl)-ethylcarbamoyl]-3-fluoro-3-methyl-butylamino}-2,2,2-trifluoro-ethyl)-biphenyl-4-yl]-cyclopropanecarboxylic acid amide] the figure was 0.3 nM.
With `CC(C)(F)C[C@H](N[C@@H](c1ccc(-c2ccc(S(C)(=O)=O)cc2)cc1)C(F)(F)F)C(=O)N[C@H](C#N)Cc1cccc[n+]1[O-]` [Example 65, (S)-4-Fluoro-4-methyl-2-[(S)-2,2,2-trifluoro-1-(4′-methanesulfonyl-biphenyl-4-yl)-ethylamino]-pentanoic acid [(S)-cyano-(1-oxy-pyridin-2-ylmethyl)-methyl]-amide] the figure was 15 nM; with `Cn1cccc1-c1ccc([C@H](N[C@@H](CC(C)(C)F)C(=O)N[C@H](C#N)Cc2ccccc2)C(F)(F)F)cc1` [Example 35, (S)-4-Fluoro-4-methyl-2-{(S)-2,2,2-trifluoro-1-[4-(1-methyl-1H-pyrrol-2-yl)-phenyl]-ethylamino}-pentanoic acid ((S)-1-cyano-2-phenyl-ethyl)-amide], 12.2 nM; with `CC(C)[C@H](N[C@@H](c1ccc(-c2ccc(C3(C(=O)NCCO)CC3)cc2)cc1)C(F)(F)F)C(=O)N[C@H](C#N)Cc1ccc(C#N)cc1F` [Example 59, 1-{4′-[(S)-1-((S)-1-{[(S)-Cyano-(4-cyano-2-fluoro-benzyl)-methyl]-carbamoyl}-2-methyl-propylamino)-2,2,2-trifluoro-ethyl]-biphenyl-4-yl}-cyclopropanecarboxylic acid (2-hydroxy-ethyl)-amide], 0.1 nM.
Consider `CC(C)C[C@H](N[C@@H](c1ccc(Br)cc1)C(F)(F)F)C(=O)N[C@H](C#N)Cc1ccc(C#N)cc1` [Example 21, (S)-2-[(S)-1-(4-Bromo-phenyl)-2,2,2-trifluoro-ethylamino]-4-methyl-pentanoic acid [(S)-1-cyano-2-(4-cyano-phenyl)-ethyl]-amide], for which the IC50 was found to be 0.94 nM.
`CC(C)(F)C[C@H](N[C@@H](c1ccc(-c2ccc(S(C)(=O)=O)cc2)cc1)C(F)(F)F)C(=O)N[C@H](C#N)Cc1cccnc1` [Example 64, (S)-4-Fluoro-4-methyl-2-[(S)-2,2,2-trifluoro-1-(4′-methanesulfonyl-biphenyl-4-yl)-ethylamino]-pentanoic acid ((S)-cyano-pyridin-3-ylmethyl-methyl)-amide]: 12.6 nM corresponded to half-maximal inhibition (IC50).
Next, `CC(C)(F)C[C@H](N[C@@H](c1ccc(-c2ccc(S(C)(=O)=O)cc2)cc1)C(F)(F)F)C(=O)N[C@H](C#N)Cc1c(F)cccc1F` [Example 76, (S)-4-Fluoro-4-methyl-2-[(S)-2,2,2-trifluoro-1-(4′-methanesulfonyl-biphenyl-4-yl)-ethylamino]-pentanoic acid [(S)-cyano-(2,6-difluoro-benzyl)-methyl]-amide]: 7.1 nM.
`CC(C)(F)C[C@H](N[C@@H](c1ccc(-c2ccc(S(C)(=O)=O)cc2)cc1)C(F)(F)F)C(=O)N[C@H](C#N)Cc1cc[n+]([O-])cc1` [Example 75, (S)-4-Fluoro-4-methyl-2-[(S)-2,2,2-trifluoro-1-(4′-methanesulfonyl-biphenyl-4-yl)-ethylamino]-pentanoic acid [(S)-cyano-(1-oxy-pyridin-4-ylmethyl)-methyl]-amide] gave an IC50 of 120 nM.
Turning to `CC(C)(F)C[C@H](N[C@@H](c1ccc(-c2ccc(C3(C#N)CC3)cc2)cc1)C(F)(F)F)C(=O)N[C@H](C#N)Cc1ccccc1` [Example 27, (S)-2-{(S)-1-[4′-(1-Cyano-cyclopropyl)-biphenyl-4-yl]-2,2,2-trifluoro-ethylamino}-4-fluoro-4-methyl-pentanoic acid ((S)-1-cyano-2-phenyl-ethyl)-amide], the half-inhibitory concentration (IC50) was 10.4 nM. This IC50 lies about 12-fold lower than the previous one.
As to `CC(C)(F)C[C@H](N[C@@H](c1ccc(-c2ccc(S(C)(=O)=O)cc2Cl)cc1)C(F)(F)F)C(=O)NC(C#N)Cc1ccc(C#N)cc1Cl` (stereo partly drawn) [Example 6, (S)-2-[(S)-1-(2′-Chloro-4′-methanesulfonyl-biphenyl-4-yl)-2,2,2-trifluoro-ethylamino]-4-fluoro-4-methyl-pentanoic acid [2-(2-chloro-4-cyano-phenyl)-1-cyano-ethyl]-amide], the IC50 worked out at 1.2 nM.
Next, `CC(C)C[C@H](N[C@@H](c1ccc(-c2ccc(S(C)(=O)=O)cc2)cc1)C(F)(F)F)C(=O)NC(C#N)Cc1ccc(C#N)cc1` (stereo partly drawn) [Example 8, (S)-4-Methyl-2-[(S)-2,2,2-trifIuoro-1-(4′-methanesulfonyl-biphenyl-4-yl)-ethylamino]-pentanoic acid [1-cyano-2-(4-cyano-phenyl)-ethyl]-amide]: 0.2 nM; `CC(C)(F)C[C@H](N[C@@H](c1ccc(-c2ccc(C3(C(=O)NCC(N)=O)CC3)cc2)cc1)C(F)(F)F)C(=O)N[C@H](C#N)Cc1ccccc1` [Example 55, 1-[4′-((S)-1-{(S)-1-[((S)-Benzyl-cyano-methyl)-carbamoyl]-3-fluoro-3-methyl-butylamino}-2,2,2-trifluoro-ethyl)-biphenyl-4-yl]-cyclopropanecarboxylic acid carbamoylmethyl-amide]: 1.9 nM; `N#Cc1ccc(C[C@@H](C#N)NC(=O)[C@@H](N[C@@H](c2ccc(-c3ccc([C@@H](O)C(F)F)cc3)cc2)C(F)(F)F)C2CC2)c(F)c1` [Example 69, (S)-N-[(S)-Cyano-(4-cyano-2-fluoro-benzyl)-methyl]-2-cyclopropyl-2-{(S)-1-[4′-((R)-2,2-difluoro-1-hydroxy-ethyl)-biphenyl-4-yl]-2,2,2-trifluoro-ethylamino}-acetamide]: 4.3 nM.
With `CC(C)[C@H](N[C@@H](c1ccc(-c2ccc([C@@H](O)C(F)F)cc2)cc1)C(F)(F)F)C(=O)N[C@H](C#N)Cc1c(F)cc(Br)cc1F` [Example 71, (S)-N-[(S)-(4-Bromo-2,6-difluoro-benzyl)-cyano-methyl]-2-{(S)-1-[4′-((R)-2,2-difluoro-1-hydroxy-ethyl)-biphenyl-4-yl]-2,2,2-trifluoro-ethylamino}-3-methyl-butyramide] the figure was 2.1 nM.
With `CC(C)[C@H](N[C@@H](c1ccc(-c2ccc(C3(C(N)=O)CC3)cc2)cc1)C(F)(F)F)C(=O)N[C@H](C#N)Cc1ccccc1` [Example 48, 1-[4′-((S)-1-{(S)-1-[((S)-Benzyl-cyano-methyl)-carbamoyl]-2-methyl-propylamino}-2,2,2-trifluoro-ethyl)-biphenyl-4-yl]-cyclopropanecarboxylic acid amide] the figure was 0.7 nM.
In turn, `CC(C)(F)C[C@H](N[C@@H](c1ccc(Br)cc1)C(F)(F)F)C(=O)N[C@H](C#N)Cc1ccc(C#N)cc1F` [Example 44, (S)-2-[(S)-1-(4-Bromo-phenyl)-2,2,2-trifluoro-ethylamino]-4-fluoro-4-methyl-pentanoic acid [(S)-1-cyano-2-(4-cyano-2-fluoro-phenyl)-ethyl]-amide] registered a 50% inhibitory concentration (IC50) of 9.4 nM.
